Source: US20250197368A1 (priority 2020, published 2025)

What was measured:
human α2β3γ2 GABAARs = test: In vitro electrophysiological recording assay (automated patch-clamp), α2-GABAAR relative efficacy; format: cell-based; conditions: % efficacy normalised to diazepam; GABA EC10-20; concentration generally >= 100 times Ki
Method in brief: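 Automated whole-cell patch clamp at 20-22° C on L(tk^−) cells (QPatch, −65 mV) or HEK293 cells (SyncroPatch, −80 mV) stably expressing the human receptor. Compound pre-applied ≥1 min, then co-applied with GABA EC10-20; % potentiation of leak-corrected peak current, normalised to diazepam, typically at ≥100× Ki.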

[1] = target: human α2β3γ2 GABAARs (benzodiazepine site) (Homo sapiens (Human), UniProt P18507+P47869); test: In vitro radioligand binding assay ([3H]Ro15-1788 displacement), α2-GABAAR Ki
Method in brief: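 Membranes from dexamethasone-induced mouse L(tk−) cells stably expressing the human receptor were incubated 1 h at 4° C with 4 nM [3H]Ro15-1788 and graded compound; nonspecific binding with 1-3 μM TP003. Filter-bound radioactivity counted; Ki from IC50 by Cheng-Prusoff using the measured radioligand Kd.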

Sequence of human α2β3γ2 GABAARs (benzodiazepine site) (P47869 29-451): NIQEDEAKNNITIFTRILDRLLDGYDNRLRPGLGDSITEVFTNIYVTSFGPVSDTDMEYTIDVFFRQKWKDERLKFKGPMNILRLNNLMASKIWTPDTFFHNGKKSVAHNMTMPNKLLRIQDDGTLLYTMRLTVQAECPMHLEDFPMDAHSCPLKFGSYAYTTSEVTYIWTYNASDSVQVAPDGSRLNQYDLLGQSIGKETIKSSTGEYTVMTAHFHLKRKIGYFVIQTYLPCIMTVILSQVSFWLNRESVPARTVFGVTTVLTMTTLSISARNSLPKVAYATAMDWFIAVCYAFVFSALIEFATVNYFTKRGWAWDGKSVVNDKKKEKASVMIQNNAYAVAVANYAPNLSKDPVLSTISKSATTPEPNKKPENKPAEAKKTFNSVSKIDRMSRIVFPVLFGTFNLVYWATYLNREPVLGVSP
Sequence of human α2β3γ2 GABAARs (benzodiazepine site) (P28472 26-473 partner): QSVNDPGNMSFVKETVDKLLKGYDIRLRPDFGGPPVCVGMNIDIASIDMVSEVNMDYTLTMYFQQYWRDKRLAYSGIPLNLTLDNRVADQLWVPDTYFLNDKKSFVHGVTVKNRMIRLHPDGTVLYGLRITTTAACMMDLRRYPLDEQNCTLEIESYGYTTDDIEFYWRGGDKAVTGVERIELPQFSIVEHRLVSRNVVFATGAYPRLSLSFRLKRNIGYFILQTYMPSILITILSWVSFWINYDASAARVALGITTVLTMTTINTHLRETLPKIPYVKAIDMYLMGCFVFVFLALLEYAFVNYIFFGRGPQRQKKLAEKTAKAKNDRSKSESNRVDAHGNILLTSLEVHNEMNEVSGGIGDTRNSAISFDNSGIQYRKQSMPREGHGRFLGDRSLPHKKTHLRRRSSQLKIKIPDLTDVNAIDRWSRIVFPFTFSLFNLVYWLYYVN
Sequence of human α2β3γ2 GABAARs (benzodiazepine site) (P18507 40-475): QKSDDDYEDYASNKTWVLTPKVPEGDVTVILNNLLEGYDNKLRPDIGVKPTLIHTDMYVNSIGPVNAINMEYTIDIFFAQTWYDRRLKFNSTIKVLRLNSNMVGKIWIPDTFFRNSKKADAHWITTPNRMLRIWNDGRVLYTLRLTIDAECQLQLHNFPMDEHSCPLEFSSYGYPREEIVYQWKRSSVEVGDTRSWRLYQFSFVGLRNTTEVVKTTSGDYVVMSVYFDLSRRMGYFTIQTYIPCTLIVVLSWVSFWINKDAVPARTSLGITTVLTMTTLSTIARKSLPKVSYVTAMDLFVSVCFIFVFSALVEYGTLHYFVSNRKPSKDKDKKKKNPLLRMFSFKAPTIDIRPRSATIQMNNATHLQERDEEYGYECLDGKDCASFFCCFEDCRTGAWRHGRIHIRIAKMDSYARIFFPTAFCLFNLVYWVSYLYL

SMILES	α2-GABAAR Relative Efficacy (vs. Diazepam) (human α2β3γ2 GABAARs)	Ki [1]
CCCNC(=O)c1c(N)c2cccc(-c3cncc(OCc4ccc(F)cn4)c3)c2[nH]c1=O [Example 29, 4-Amino-8-(5-((5-fluoropyridin-2-yl)methoxy)pyridin-3-yl)-2-oxo-N-propyl-1,2-dihydroquinoline-3-carboxamide]	0.22	6.66 nM
CCCNC(=O)c1c(N)c2cccc(-c3cc(OCc4cscn4)ccc3F)c2[nH]c1=O [Example 119, 4-Amino-8-(2-fluoro-5-(thiazol-4-ylmethoxy)phenyl)-2-oxo-N-propyl-1,2-dihydroquinoline-3-carboxamide]	0.38	0.31 nM
CCCNC(=O)c1c(N)c2cccc(-c3cc(OCc4noc(C)n4)ccc3F)c2[nH]c1=O [Example 130, 4-Amino-8-[2-fluoro-5-[(5-methyl-1,2,4-oxadiazol-3-yl)methoxy]phenyl]-2-oxo-N-propyl-1H-quinoline-3-carboxamide]	0.18	0.65 nM
CCCNC(=O)c1c(N)c2cccc(-c3cc(CN4CC5(CCN(C)C5)C4)ccc3F)c2[nH]c1=O [Example 139, 4-Amino-8-(2-fluoro-5-((6-methyl-2,6-diazaspiro[3.4]octan-2-yl)methyl)phenyl)-2-oxo-N-propyl-1,2-dihydroquinoline-3-carboxamide]	0.18	1.08 nM
CCCNC(=O)c1c(N)c2cccc(-c3nc(OCCOC)ncc3F)c2[nH]c1=O [Example 43, 4-Amino-8-(5-fluoro-2-(2-methoxyethoxy)pyrimidin-4-yl)-2-oxo-N-propyl-1,2-dihydroquinoline-3-carboxamide]	0.14	1.47 nM
CCCNC(=O)c1c(N)c2cccc(-c3cncc(C)n3)c2[nH]c1=O [Example 46, 4-Amino-8-(6-methylpyrazin-2-yl)-2-oxo-N-propyl-1,2-dihydroquinoline-3-carboxamide]	0.02	2.37 nM
CCCNC(=O)c1c(N)c2cccc(-c3cc(OCc4ccc(F)cn4)ccc3C)c2[nH]c1=O [Example 93]	0.34	1.63 nM
CCCNC(=O)c1c(N)c2cccc(-c3cc(OCc4scnc4C)ccc3F)c2[nH]c1=O [Example 117, 4-Amino-8-[2-fluoro-5-[(4-methylthiazol-5-yl)methoxy]phenyl]-2-oxo-N-propyl-1H-quinoline-3-carboxamide]	0.23	1.6 nM
CCCNC(=O)c1c(N)c2cccc(-c3cc(OCc4nnc(C)o4)ccc3F)c2[nH]c1=O [Example 131, 4-Amino-8-(2-fluoro-5-((5-methyl-1,3,4-oxadiazol-2-yl)methoxy)phenyl)-2-oxo-N-propyl-1,2-dihydroquinoline-3-carboxamide]	0.40	0.3 nM
CCCNC(=O)c1c(N)c2cccc(-c3c(F)cccc3F)c2[nH]c1=O [Example 50, 4-Amino-8-(2,6-difluorophenyl)-2-oxo-N-propyl-1H-quinoline-3-carboxamide]	0.34	0.21 nM
CCCNC(=O)c1c(N)c2cccc(-c3cc(OC)ccc3F)c2[nH]c1=O [Example 49, 4-Amino-8-(2-fluoro-5-methoxy-phenyl)-2-oxo-N-propyl-1H-quinoline-3-carboxamide]	0.26	0.43 nM
CCCNC(=O)c1c(N)c2cccc(-c3cncc(OC)c3C)c2[nH]c1=O [Example 24, 4-Amino-8-(5-methoxy-4-methylpyridin-3-yl)-2-oxo-N-propyl-1,2-dihydroquinoline-3-carboxamide]	0.21	4.11 nM
CCCNC(=O)c1c(N)c2cccc(-c3nc(CO)ccc3C)c2[nH]c1=O [Example 12, 4-Amino-8-(6-(hydroxymethyl)-3-methylpyridin-2-yl)-2-oxo-N-propyl-1,2-dihydroquinoline-3-carboxamide]	0.38	8.17 nM
COc1ccncc1-c1cccc2c(N)c(C(=O)NCC3CC3)c(=O)n(C)c12 [Example 78, 4-Amino-N-(cyclopropylmethyl)-8-(4-methoxy-3-pyridyl)-1-methyl-2-oxo-quinoline-3-carboxamide]	0.70	2.11 nM
CCCNC(=O)c1c(N)c2cccc(-c3ncncc3OC)c2[nH]c1=O [Example 37, 4-Amino-8-(5-methoxypyrimidin-4-yl)-2-oxo-N-propyl-1H-quinoline-3-carboxamide]	0.78	7.55 nM
CCCNC(=O)c1c(N)c2cccc(-c3cc(OCc4ccn(C)n4)ccc3F)c2[nH]c1=O [Example 128, 4-Amino-8-[2-fluoro-5-[(1-methylpyrazol-3-yl)methoxy]phenyl]-2-oxo-N-propyl-1H-quinoline-3-carboxamide]	0.24	1.08 nM

SMILES	α2-GABAAR Relative Efficacy (vs. Diazepam) (human α2β3γ2 GABAARs)	Ki [1]
CCCNC(=O)c1c(N)c2cccc(-c3cncnc3OC)c2[nH]c1=O [Example 44, 4-Amino-8-(4-methoxypyrimidin-5-yl)-2-oxo-N-propyl-1H-quinoline-3-carboxamide]	0.30	18.6 nM
CCCNC(=O)c1c(N)c2cccc(-c3cnccc3C)c2[nH]c1=O [Example 15, 4-Amino-8-(4-methylpyridin-3-yl)-2-oxo-N-propyl-1,2-dihydroquinoline-3-carboxamide]	0.17	4.09 nM
CCCNC(=O)c1c(N)c2cccc(-c3cnccc3F)c2[nH]c1=O [Example 16, 4-Amino-8-(4-fluoropyridin-3-yl)-2-oxo-N-propyl-1,2-dihydroquinoline-3-carboxamide]	0.34	24.1 nM
CCCNC(=O)c1c(N)c2cccc(-c3cnccc3OCC)c2[nH]c1=O [Example 19, 4-Amino-8-(4-ethoxypyridin-3-yl)-2-oxo-N-propyl-1,2-dihydroquinoline-3-carboxamide]	0.23	21.5 nM
CCCNC(=O)c1c(N)c2cccc(-c3cc(Cc4ncn(CC)n4)ccc3F)c2[nH]c1=O [Example 145, 4-Amino-8-(5-((1-ethyl-1H-1,2,4-triazol-3-yl)methyl)-2-fluorophenyl)-2-oxo-N-propyl-1,2-dihydroquinoline-3-carboxamide]	0.28	1.29 nM
CCCNC(=O)c1c(N)c2cccc(-c3cc(OCc4ccc(OC)cn4)ccc3F)c2[nH]c1=O [Example 96, 4-Amino-8-[2-fluoro-5-[(5-methoxy-2-pyridyl)methoxy]phenyl]-2-oxo-N-propyl-1H-quinoline-3-carboxamide]	0.24	0.92 nM
CCCNC(=O)c1c(N)c2cccc(-c3nc(C)ncc3C#N)c2[nH]c1=O [Example 39, 4-Amino-8-(5-cyano-2-methyl-pyrimidin-4-yl)-2-oxo-N-propyl-1H-quinoline-3-carboxamide]	−0.06	9.31 nM
Cc1nn(C)cc1-c1cccc2c(N)c(C(=O)NCCC(F)(F)F)c(=O)[nH]c12 [Example 73, 4-Amino-8-(1,3-dimethylpyrazol-4-yl)-2-oxo-N-(3,3,3-trifluoropropyl)-1H-quinoline-3-carboxamide]	0.48	3.08 nM
CCCNC(=O)c1c(N)c2cccc(-c3cncc(OC)n3)c2[nH]c1=O [Example 47, 4-Amino-8-(6-methoxypyrazin-2-yl)-2-oxo-N-propyl-1,2-dihydroquinoline-3-carboxamide]	0.08	0.23 nM
CCCNC(=O)c1c(N)c2cccc(-c3cccnc3OC)c2n(C)c1=O [Example 76, 4-Amino-8-(2-methoxy-3-pyridyl)-1-methyl-2-oxo-N-propyl-quinoline-3-carboxamide]	0.42	6.23 nM
CCCNC(=O)c1c(N)c2cccc(-c3cc(OCc4cncn4C)ccc3F)c2[nH]c1=O [Example 125, 4-Amino-8-(2-fluoro-5-((1-methyl-1H-imidazol-5-yl)methoxy)phenyl)-2-oxo-N-propyl-1,2-dihydroquinoline-3-carboxamide]	0.22	0.37 nM
CCCNC(=O)c1c(N)c2cccc(-c3ccncn3)c2[nH]c1=O [Example 36, 4-Amino-2-oxo-N-propyl-8-pyrimidin-4-yl-1H-quinoline-3-carboxamide]	0.05	3.69 nM
COc1ccncc1-c1cccc2c(N)c(C(=O)NCC3CC3)c(=O)[nH]c12 [Example 59, 4-Amino-N-(cyclopropylmethyl)-8-(4-methoxy-3-pyridyl)-2-oxo-1H-quinoline-3-carboxamide]	0.27	2.01 nM
CCCNC(=O)c1c(N)c2cccc(-c3cn(C)nc3C)c2n(C)c1=O [Example 80, 4-Amino-8-(1,3-dimethylpyrazol-4-yl)-1-methyl-2-oxo-N-propyl-quinoline-3-carboxamide]	0.6	4.44 nM
CCCNC(=O)c1c(N)c2cccc(-c3cc(OCc4cccnc4C#N)ccc3F)c2[nH]c1=O [Example 109, 4-Amino-8-[5-[(2-cyano-3-pyridyl)methoxy]-2-fluoro-phenyl]-2-oxo-N-propyl-1H-quinoline-3-carboxamide]	0.21	0.17 nM
CCCNC(=O)c1c(N)c2cccc(-c3ccncc3)c2[nH]c1=O [Example 31, 4-Amino-2-oxo-N-propyl-8-(pyridin-4-yl)-1,2-dihydroquinoline-3-carboxamide]	0.24	3.28 nM
